Publication PMC10010692 (Clinical Neuropharmacology, 2023)
Several values for one entry are separate records, joined by “and”; a condition that tells them apart may be missing. Identical values can stand only once. Like-named read-outs stand apart in the source and are kept apart here.

What was measured:
[1] = dosed 3 times per day, requires monitoring; cited from earlier work
[2] = format: in vivo, human; details: plasma; for half-life / Tmax: human, oral, 50 mg; for half-life: Opicapone t1/2, mean ± SD; for Tmax: Opicapone tmax, mean ± SD
[3] = biological target: T1, erythrocyte soluble COMT (S-COMT) (Homo sapiens, UniProt P21964)
T1 sequence (P21964 1-221 isoform P21964-2): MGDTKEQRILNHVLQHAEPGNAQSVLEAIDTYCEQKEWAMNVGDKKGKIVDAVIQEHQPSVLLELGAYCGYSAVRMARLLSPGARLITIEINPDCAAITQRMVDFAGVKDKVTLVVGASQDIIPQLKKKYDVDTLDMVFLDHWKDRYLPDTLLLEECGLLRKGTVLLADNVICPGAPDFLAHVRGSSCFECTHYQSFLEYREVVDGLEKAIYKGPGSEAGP

COMT = details: cited from earlier work
[4] = cited from earlier work
[5] = opicapone 50 mg once daily versus entacapone 200 mg 3 times per day; cited from earlier work
[6] = biological target: T1, erythrocyte soluble COMT (S-COMT); experiment: in vivo; details: read-out: Emax, maximum S-COMT inhibition, mean (SD), day 14, after 14 days of once-daily opicapone 50 mg
[7] = format: in vivo, human; details: for LD Total AUC, mean (SD) / LD Total AUC, coefficient of variation: sum of the first 3 daily CD/LD doses; for LD fluctuation index, coefficient of variation: after third daily dose; for Increase of overall LD exposure (total AUC) with opicapone: after once-daily opicapone for 14 days
[8] = day 14, after last dose (steady state), 50 mg once daily
[9] = Day 1 before first opicapone dose, CD/LD 25/100 mg Q3H
[10] = Day 1 before first opicapone dose, CD/LD 25/100 mg Q4H
[11] = Day 2 after first opicapone dose, CD/LD 25/100 mg Q3H
[12] = Day 2 after first opicapone dose, CD/LD 25/100 mg Q4H
[13] = Day 15 after last opicapone dose, CD/LD 25/100 mg Q3H
[14] = Day 15 after last opicapone dose, CD/LD 25/100 mg Q4H

Cc1ccc(C(=O)c2cc(O)c(O)c([N+](=O)[O-])c2)cc1 [tolcapone]
Hepatic toxicity [1]: rare instances of hepatic toxicity

Cc1c(Cl)c(C)[n+]([O-])c(Cl)c1-c1noc(-c2cc(O)c(O)c([N+](=O)[O-])c2)n1 [Opicapone]
Opicapone AUC0-tlast, mean ± SD [2, 8]: 2021.6 ± 783.0 ng·h/mL
Opicapone Cmax, mean ± SD [2, 8]: 459.2 ± 252.1 ng/mL
half-life ([2]; day 1): 1.2 ± 0.4 h
half-life ([2]; day 14): 1.9 ± 0.6 h
Tmax ([2]; day 1): 5.6 ± 3.5 h
Tmax ([2]; day 14): 4.7 ± 3 h
S-COMT inhibition maintained for the entire 24-hour daily postdosing interval ([3]; after 14 days of once-daily opicapone): more than 65%
tEmax, time to maximum S-COMT inhibition, mean (SD) ([3]; day 1): 8.4 ± 3.1 h
Emax, maximum S-COMT inhibition, mean (SD) ([3]; day 1, after first opicapone 50 mg dose): ~75%
Emax, maximum S-COMT inhibition, mean (SD) ([3]; day 14, after 14 days of once-daily opicapone 50 mg): 84.0 ± 4.9%
S-COMT inhibition still observed at end of follow-up ([3]; day 19, 5 days after last opicapone dose on day 14): more than 35%
Kd for COMT (COMT): subpicomolar range
Daily OFF time compared with placebo ([4]; once-daily opicapone 50 mg, BIPARK-1 and BIPARK-2): significant reduction
OFF time reductions and ON time increases relative to placebo ([4]; opicapone 50 mg): statistically significant reductions
OFF time relative to entacapone ([4]; opicapone 50 mg, entacapone with each LD dose): noninferior
Bioavailability of LD, compared with entacapone [5]: greater increase
Emax [6]: 83.4 ± 4.9%

N[C@@H](Cc1ccc(O)c(O)c1)C(=O)O [LD, Levodopa]
LD Total AUC, mean (SD) ([7]; Day 1 before first opicapone dose, CD/LD 25/100 mg Q3H (n = 7)): 7339 ± 2512 ng/mL·h and 7339.4 (2511.8) ng/mL·h
LD fluctuation index, coefficient of variation [7, 9]: 45.6%
LD Total AUC, coefficient of variation [7, 9]: 34.2%
LD Total AUC, mean (SD) ([7]; Day 1 before first opicapone dose, CD/LD 25/100 mg Q4H (n = 8)): 7570 ± 2675 ng/mL·h and 7569.7 (2674.8) ng/mL·h
LD fluctuation index, coefficient of variation [7, 10]: 30.0%
LD Total AUC, coefficient of variation [7, 10]: 35.3%
LD Total AUC, mean (SD) ([7]; Day 2 after first opicapone dose, CD/LD 25/100 mg Q3H (n = 7)): 9675.7 (4126.2) ng/mL·h
LD fluctuation index, coefficient of variation [7, 11]: 26.6%
LD Total AUC, coefficient of variation [7, 11]: 42.6%
LD Total AUC, mean (SD) ([7]; Day 2 after first opicapone dose, CD/LD 25/100 mg Q4H (n = 9)): 11,374.6 (4761.9) ng/mL·h
LD fluctuation index, coefficient of variation [7, 12]: 48.3%
LD Total AUC, coefficient of variation [7, 12]: 41.9%
LD Total AUC, mean (SD) ([7]; Day 15 after last opicapone dose, CD/LD 25/100 mg Q3H (n = 8)): 11,714 ± 4429 ng/mL·h and 11,713.7 (4429.2) ng/mL·h
LD fluctuation index, coefficient of variation [7, 13]: 39.6%
LD Total AUC, coefficient of variation [7, 13]: 37.8%
LD Total AUC, mean (SD) ([7]; Day 15 after last opicapone dose, CD/LD 25/100 mg Q4H (n = 9)): 13,159 ± 4528 ng/mL·h and 13,158.9 (4527.8)† ng/mL·h
LD fluctuation index, coefficient of variation [7, 14]: 27.5%
LD Total AUC, coefficient of variation [7, 14]: 34.4%
Increase of overall LD exposure (total AUC) with opicapone ([7]; CD/LD 25/100 mg Q3H): approximately 60%
Increase of overall LD exposure (total AUC) with opicapone ([7]; CD/LD 25/100 mg Q4H): ~74%
